The assay has as its target α7 nAChR subtype (Rattus norvegicus, UniProt Q05941). The class given is binding. Particulars: read-out: KD (saturation curve, one site model).

From US7982038B2 (priority 2003, dated 2011) come the findings set out here.

Sequence of α7 nAChR subtype (Q05941 23-502 limits assumed): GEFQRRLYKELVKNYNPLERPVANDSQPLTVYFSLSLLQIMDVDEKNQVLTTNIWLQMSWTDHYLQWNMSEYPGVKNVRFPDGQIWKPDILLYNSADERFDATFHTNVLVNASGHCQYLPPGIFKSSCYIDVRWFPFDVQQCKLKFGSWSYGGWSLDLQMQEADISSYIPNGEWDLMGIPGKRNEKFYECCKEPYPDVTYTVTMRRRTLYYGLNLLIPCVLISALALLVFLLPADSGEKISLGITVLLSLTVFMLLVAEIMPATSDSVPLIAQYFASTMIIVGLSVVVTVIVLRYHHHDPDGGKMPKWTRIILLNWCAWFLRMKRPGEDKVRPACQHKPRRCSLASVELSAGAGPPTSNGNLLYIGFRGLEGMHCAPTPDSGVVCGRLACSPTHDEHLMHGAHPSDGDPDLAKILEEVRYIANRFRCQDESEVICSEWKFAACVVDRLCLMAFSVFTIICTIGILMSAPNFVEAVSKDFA

In the case of [^125I]-α-Bungarotoxin [^125I-α-BTX], the Kd is 1.67 nM.
